Each block holds one molecule with its values, some of them ahead of it. Calls of active or inactive are those of the source. The calls are words filed in the database; no cut-off is given here. Square brackets hold non-standard residues; d marks the D form. Peptide text beside a SMILES is read from it. * marks the point of attachment. X1 = CC(=O)N[C@H]1[C@H](O[C@H]2[C@@H](O)[C@H](O)[C@@H](CO)O[C@@H]2*)O[C@H](CO)[C@@H](O[C@@H]2O[C@H](CO)[C@H](O)[C@H](O[C@]3(C(=O)O)C[C@H](O)[C@@H](NC(C)=O)[C@H]([C@H](O)[C@H](O)CO)O3)[C@H]2O)[C@@H]1O; X2 = CC(=O)N[C@H]1[C@H](O[C@H]2[C@@H](O)[C@H](O)[C@@H](CO)O[C@@H]2*)O[C@H](CO)[C@@H](O[C@@H]2O[C@H](CO)[C@H](O)[C@H](O)[C@H]2O)[C@@H]1O; Orn(CH(NH2)2) = NC(N)NCCC[C@H](N)C(=O)O; Hexanoyl(5-oxo) = CC(=O)CCCC(=O)*
Columns and labels:
[1] = system: Maackia amurensis; test: Binding affinity to biotin-labeled Maackia amurensis agglutinin in pH 7.4 Tris buffer by fluorescence microarray method
[2] = system: Datura stramonium; test: Binding affinity to biotin-labeled Datura stramonium agglutinin in pH 7.4 Tris buffer by fluorescence microarray method
[3] = system: Arachis hypogaea; test: Binding affinity to biotin-labeled Arachis hypogaea agglutinin in pH 7.4 Tris buffer by fluorescence microarray method
[4] = system: Sambucus racemosa subsp. sieboldiana; test: Binding affinity to biotin-labeled Sambucus sieboldiana agglutinin in pH 7.4 Tris buffer by fluorescence microarray method
[5] = system: Erythrina crista-galli; test: Binding affinity to biotin-labeled Erythrina crista-galli agglutinin in pH 7.4 Tris buffer by fluorescence microarray method
[6] = system: Triticum aestivum; test: Binding affinity to biotin-labeled Wheat germ agglutinin in pH 7.4 Tris buffer by fluorescence microarray method
[7] = system: Canavalia ensiformis; test: Binding affinity to biotin-labeled Canavalia ensiformis agglutinin in pH 7.4 Tris buffer by fluorescence microarray method
[8] = target: Laminin subunit alpha-1 (Homo sapiens) (UniProt P25391); test: Binding affinity to biotin-labeled human recombinant laminin-1 at 10 ug/ml in pH 7.4 Tris buffer by fluorescence microarray method
Sequence of Laminin subunit alpha-1 (Homo sapiens) (P25391 whole entry): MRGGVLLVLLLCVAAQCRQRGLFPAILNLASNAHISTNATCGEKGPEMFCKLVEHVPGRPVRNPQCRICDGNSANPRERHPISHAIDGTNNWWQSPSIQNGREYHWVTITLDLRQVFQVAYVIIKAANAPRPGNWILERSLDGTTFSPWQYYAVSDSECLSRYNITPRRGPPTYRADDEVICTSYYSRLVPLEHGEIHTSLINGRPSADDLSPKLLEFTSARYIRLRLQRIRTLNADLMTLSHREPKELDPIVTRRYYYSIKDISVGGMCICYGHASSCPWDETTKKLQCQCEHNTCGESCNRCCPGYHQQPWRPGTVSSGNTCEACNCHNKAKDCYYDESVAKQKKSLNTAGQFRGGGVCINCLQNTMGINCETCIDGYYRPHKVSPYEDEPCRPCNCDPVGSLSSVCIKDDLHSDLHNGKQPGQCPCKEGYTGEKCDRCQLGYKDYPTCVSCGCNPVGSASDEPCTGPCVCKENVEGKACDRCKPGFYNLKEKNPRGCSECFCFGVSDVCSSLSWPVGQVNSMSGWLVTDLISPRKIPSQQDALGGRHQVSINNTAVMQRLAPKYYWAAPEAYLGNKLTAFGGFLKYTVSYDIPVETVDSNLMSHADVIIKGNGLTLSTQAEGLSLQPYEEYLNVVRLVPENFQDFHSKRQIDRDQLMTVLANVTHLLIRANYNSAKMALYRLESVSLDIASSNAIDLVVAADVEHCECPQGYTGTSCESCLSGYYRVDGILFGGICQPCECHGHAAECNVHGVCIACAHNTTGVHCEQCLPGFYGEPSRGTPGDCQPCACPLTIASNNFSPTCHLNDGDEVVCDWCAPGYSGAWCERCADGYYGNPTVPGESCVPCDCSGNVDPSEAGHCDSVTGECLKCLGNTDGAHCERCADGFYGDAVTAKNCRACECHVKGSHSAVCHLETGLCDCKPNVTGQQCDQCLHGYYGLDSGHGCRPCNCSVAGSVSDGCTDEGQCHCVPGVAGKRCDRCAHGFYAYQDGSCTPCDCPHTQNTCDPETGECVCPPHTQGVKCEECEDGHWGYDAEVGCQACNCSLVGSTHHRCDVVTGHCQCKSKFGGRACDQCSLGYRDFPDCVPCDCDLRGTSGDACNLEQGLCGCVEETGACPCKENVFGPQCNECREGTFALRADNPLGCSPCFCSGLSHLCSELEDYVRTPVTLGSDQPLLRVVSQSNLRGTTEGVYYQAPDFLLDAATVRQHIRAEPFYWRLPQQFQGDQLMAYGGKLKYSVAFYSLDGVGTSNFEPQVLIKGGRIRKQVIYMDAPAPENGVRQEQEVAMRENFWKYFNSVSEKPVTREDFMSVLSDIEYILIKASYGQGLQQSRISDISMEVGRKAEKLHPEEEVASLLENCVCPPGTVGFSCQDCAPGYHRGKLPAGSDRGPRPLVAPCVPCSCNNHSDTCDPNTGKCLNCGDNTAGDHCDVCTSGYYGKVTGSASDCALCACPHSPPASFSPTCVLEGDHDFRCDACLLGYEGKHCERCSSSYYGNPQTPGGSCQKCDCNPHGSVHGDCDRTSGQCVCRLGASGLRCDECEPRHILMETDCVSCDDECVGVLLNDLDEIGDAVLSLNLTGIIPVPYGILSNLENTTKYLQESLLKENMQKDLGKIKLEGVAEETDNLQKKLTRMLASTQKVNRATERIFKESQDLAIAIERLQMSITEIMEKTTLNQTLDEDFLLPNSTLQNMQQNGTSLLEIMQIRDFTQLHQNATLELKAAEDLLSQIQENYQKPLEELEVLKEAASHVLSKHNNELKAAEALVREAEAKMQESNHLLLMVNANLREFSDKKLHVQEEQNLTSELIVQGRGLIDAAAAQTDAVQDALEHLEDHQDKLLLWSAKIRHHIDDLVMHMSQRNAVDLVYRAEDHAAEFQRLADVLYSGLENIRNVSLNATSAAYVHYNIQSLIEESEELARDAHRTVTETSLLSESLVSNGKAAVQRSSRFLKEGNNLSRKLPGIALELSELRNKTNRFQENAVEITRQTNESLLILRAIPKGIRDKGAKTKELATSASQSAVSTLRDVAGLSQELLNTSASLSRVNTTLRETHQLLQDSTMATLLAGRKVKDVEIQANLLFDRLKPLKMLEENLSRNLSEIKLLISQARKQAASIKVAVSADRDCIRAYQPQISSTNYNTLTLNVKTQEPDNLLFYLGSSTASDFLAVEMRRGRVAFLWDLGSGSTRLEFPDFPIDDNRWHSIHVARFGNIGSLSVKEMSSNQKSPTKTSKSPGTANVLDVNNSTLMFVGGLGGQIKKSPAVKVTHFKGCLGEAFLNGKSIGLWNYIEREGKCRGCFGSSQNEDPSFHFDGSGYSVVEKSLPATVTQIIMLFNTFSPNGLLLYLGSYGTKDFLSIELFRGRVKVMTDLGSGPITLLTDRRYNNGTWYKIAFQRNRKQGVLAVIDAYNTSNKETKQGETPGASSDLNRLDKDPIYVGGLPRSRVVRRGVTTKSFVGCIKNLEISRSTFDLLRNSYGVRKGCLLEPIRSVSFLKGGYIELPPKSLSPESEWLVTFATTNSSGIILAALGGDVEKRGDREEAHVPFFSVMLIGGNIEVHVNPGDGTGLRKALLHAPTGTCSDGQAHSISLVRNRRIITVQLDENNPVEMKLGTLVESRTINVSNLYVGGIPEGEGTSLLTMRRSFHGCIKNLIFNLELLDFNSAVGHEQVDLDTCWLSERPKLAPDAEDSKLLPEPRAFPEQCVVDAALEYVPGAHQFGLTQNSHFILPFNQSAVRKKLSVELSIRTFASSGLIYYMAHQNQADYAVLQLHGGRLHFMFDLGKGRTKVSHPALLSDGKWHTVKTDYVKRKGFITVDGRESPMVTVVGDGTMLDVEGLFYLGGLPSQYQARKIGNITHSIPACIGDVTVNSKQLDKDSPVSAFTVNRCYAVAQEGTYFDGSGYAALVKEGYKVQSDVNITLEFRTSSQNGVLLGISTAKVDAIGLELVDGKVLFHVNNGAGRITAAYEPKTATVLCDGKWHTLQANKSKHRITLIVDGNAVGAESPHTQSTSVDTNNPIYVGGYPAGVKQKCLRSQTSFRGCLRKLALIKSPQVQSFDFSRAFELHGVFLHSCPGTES

[9] = species on record: Homo sapiens; test: Binding affinity to biotin-labeled human recombinant laminin-2 at 10 ug/ml in pH 7.4 Tris buffer by fluorescence microarray method
[10] = target: Lactotransferrin (Homo sapiens) (UniProt P02788); test: Binding affinity to biotin-labeled lactoferrin (unknown origin) at 10 ug/ml in pH 7.4 Tris buffer by fluorescence microarray method
Sequence of Lactotransferrin (Homo sapiens) (P02788 whole entry): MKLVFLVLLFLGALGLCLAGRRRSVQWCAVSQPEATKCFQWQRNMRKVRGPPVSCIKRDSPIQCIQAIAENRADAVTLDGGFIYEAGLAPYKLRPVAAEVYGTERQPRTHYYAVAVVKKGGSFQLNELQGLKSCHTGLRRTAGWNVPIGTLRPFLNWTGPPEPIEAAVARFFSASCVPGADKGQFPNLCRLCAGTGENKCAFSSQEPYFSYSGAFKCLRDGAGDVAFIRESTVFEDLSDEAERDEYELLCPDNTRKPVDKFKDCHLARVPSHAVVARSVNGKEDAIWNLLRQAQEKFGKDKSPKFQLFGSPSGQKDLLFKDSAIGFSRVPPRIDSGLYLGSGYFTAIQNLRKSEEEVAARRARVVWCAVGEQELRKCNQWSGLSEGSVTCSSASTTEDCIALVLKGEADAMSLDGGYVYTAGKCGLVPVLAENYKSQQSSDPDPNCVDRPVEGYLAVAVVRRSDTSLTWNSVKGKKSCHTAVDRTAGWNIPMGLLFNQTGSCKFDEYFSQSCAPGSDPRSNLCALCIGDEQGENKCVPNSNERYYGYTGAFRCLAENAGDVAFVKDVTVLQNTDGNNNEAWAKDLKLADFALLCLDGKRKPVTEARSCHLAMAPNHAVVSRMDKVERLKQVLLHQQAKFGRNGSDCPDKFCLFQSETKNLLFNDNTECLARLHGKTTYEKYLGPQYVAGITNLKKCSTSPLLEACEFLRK

[11] = target: Laminin subunit alpha-1 (Homo sapiens) (UniProt P25391); test: Binding affinity to biotin-labeled human recombinant laminin-1 at 10 ug/ml in pH 5.6 MES buffer by fluorescence microarray method
[12] = target: Lactotransferrin (Homo sapiens) (UniProt P02788); test: Binding affinity to biotin-labeled lactoferrin (unknown origin) at 10 ug/ml in pH 5.6 MES buffer by fluorescence microarray method
[13] = species on record: Homo sapiens; test: Binding affinity to biotin-labeled human recombinant laminin-2 at 10 ug/ml in 5.6 MES buffer by fluorescence microarray method
[14] = Binding affinity to biotin-labeled Agaricus bisporus agglutinin in pH 7.4 Tris buffer by fluorescence microarray method

Activity [1]: inactive
Activity [2]: inactive
Activity [3]: Active
Activity [4]: Active
Activity [5]: Active
Activity [6]: Active
Activity [7]: Active
Activity [8]: Active
Activity [9]: inactive
Activity [10]: inactive
Activity [11]: Active
Activity [12]: Active
Activity [13]: Active
Activity [14]: Active
SMILES: CC[C@H](C)[C@H](NC(=O)[C@H](C)NC(=O)CNC(=O)[C@H](CCCNC(=N)N)NC(=O)[C@@H](NC(=O)CCCC(C)=O)[C@@H](C)O)C(=O)N[C@H](C(=O)N[C@@H](CCC(N)=O)C(=O)N[C@H](C(=O)N1CCC[C@H]1C(=O)N[C@H](C(=O)N[C@@H](CC(C)C)C(=O)NCC(=O)N1CCC[C@H]1C(=O)N[C@H](C(=O)N[C@@H](CCC(N)=O)C(=O)N1CCC[C@H]1C(=O)N[C@H](C(=O)N[C@@H](CCCNC(=N)N)C(=O)N[C@H](C(N)=O)C(C)C)[C@@H](C)O[C@H]1O[C@H](CO)[C@@H](O)[C@H](O)[C@@H]1O[C@@H]1O[C@H](CO)[C@@H](O[C@@H]2O[C@H](CO)[C@H](O)[C@H](O)[C@H]2O)[C@H](O)[C@H]1NC(C)=O)[C@@H](C)CC)[C@@H](C)O[C@H]1O[C@H](CO)[C@@H](O)[C@H](O)[C@@H]1O[C@@H]1O[C@H](CO)[C@@H](O[C@@H]2O[C@H](CO)[C@H](O)[C@H](O[C@]3(C(=O)O)C[C@H](O)[C@@H](NC(C)=O)[C@H]([C@H](O)[C@H](O)CO)O3)[C@H]2O)[C@H](O)[C@H]1NC(C)=O)[C@@H](C)O)[C@@H](C)CC ({Hexanoyl(5-oxo)}-TRGAIIQTPT(X1)LGPIQPT(X2)RV-NH2)

Activity [1]: inactive
Activity [2]: inactive
Activity [3]: Active
Activity [4]: Active
Activity [5]: Active
Activity [6]: Active
Activity [7]: Active
Activity [8]: Active
Activity [9]: inactive
Activity [10]: inactive
Activity [11]: Active
Activity [12]: Active
Activity [13]: Active
Activity [14]: Active
SMILES: CC[C@H](C)[C@H](NC(=O)[C@H](C)NC(=O)CNC(=O)[C@H](CCCNC(=N)N)NC(=O)[C@@H](NC(=O)CCCC(C)=O)[C@@H](C)O)C(=O)N[C@H](C(=O)N[C@@H](CCC(N)=O)C(=O)N[C@H](C(=O)N1CCC[C@H]1C(=O)N[C@H](C(=O)N[C@@H](CC(C)C)C(=O)NCC(=O)N1CCC[C@H]1C(=O)N[C@H](C(=O)N[C@@H](CCC(N)=O)C(=O)N1CCC[C@H]1C(=O)N[C@H](C(=O)N[C@@H](CCCNC(=N)N)C(=O)N[C@H](C(N)=O)C(C)C)[C@@H](C)O)[C@@H](C)CC)[C@@H](C)O[C@H]1O[C@H](CO)[C@@H](O)[C@H](O)[C@@H]1O[C@@H]1O[C@H](CO)[C@@H](O[C@@H]2O[C@H](CO)[C@H](O)[C@H](O)[C@H]2O)[C@H](O)[C@H]1NC(C)=O)[C@@H](C)O)[C@@H](C)CC ({Hexanoyl(5-oxo)}-TRGAIIQTPT(X2)LGPIQPTRV-NH2)

The remaining lines, values behind:

SMILES: CC[C@H](C)[C@H](NC(=O)[C@H](C)NC(=O)CNC(=O)[C@H](CCCNC(=N)N)NC(=O)[C@@H](NC(=O)CCCC(C)=O)[C@@H](C)O)C(=O)N[C@H](C(=O)N[C@@H](CCC(N)=O)C(=O)N[C@H](C(=O)N1CCC[C@H]1C(=O)N[C@H](C(=O)N[C@@H](CC(C)C)C(=O)NCC(=O)N1CCC[C@H]1C(=O)N[C@H](C(=O)N[C@@H](CCC(N)=O)C(=O)N1CCC[C@H]1C(=O)N[C@H](C(=O)N[C@@H](CCCNC(=N)N)C(=O)N[C@H](C(N)=O)C(C)C)[C@@H](C)O)[C@@H](C)CC)[C@@H](C)O[C@H]1O[C@H](CO)[C@@H](O)[C@H](O)[C@@H]1O[C@@H]1O[C@H](CO)[C@@H](O[C@@H]2O[C@H](CO)[C@H](O)[C@H](O[C@]3(C(=O)O)C[C@H](O)[C@@H](NC(C)=O)[C@H]([C@H](O)[C@H](O)CO)O3)[C@H]2O)[C@H](O)[C@H]1NC(C)=O)[C@@H](C)O[C@H]1O[C@H](CO)[C@@H](O)[C@H](O)[C@@H]1O[C@@H]1O[C@H](CO)[C@@H](O[C@@H]2O[C@H](CO)[C@H](O)[C@H](O[C@]3(C(=O)O)C[C@H](O)[C@@H](NC(C)=O)[C@H]([C@H](O)[C@H](O)CO)O3)[C@H]2O)[C@H](O)[C@H]1NC(C)=O)[C@@H](C)CC ({Hexanoyl(5-oxo)}-TRGAIIQT(X1)PT(X1)LGPIQPTRV-NH2)
Activity [1]: inactive
Activity [2]: inactive
Activity [3]: Active
Activity [4]: Active
Activity [5]: Active
Activity [6]: Active
Activity [7]: Active
Activity [8]: Active
Activity [9]: inactive
Activity [10]: inactive
Activity [11]: Active
Activity [12]: Active
Activity [13]: Active
Activity [14]: Active

SMILES: CC[C@H](C)[C@H](NC(=O)[C@H](C)NC(=O)CNC(=O)[C@H](CCCNC(=N)N)NC(=O)[C@@H](NC(=O)CCCC(C)=O)[C@@H](C)O)C(=O)N[C@H](C(=O)N[C@@H](CCC(N)=O)C(=O)N[C@H](C(=O)N1CCC[C@H]1C(=O)N[C@H](C(=O)N[C@@H](CC(C)C)C(=O)NCC(=O)N1CCC[C@H]1C(=O)N[C@H](C(=O)N[C@@H](CCC(N)=O)C(=O)N1CCC[C@H]1C(=O)N[C@H](C(=O)N[C@@H](CCCNC(N)N)C(=O)N[C@H](C(N)=O)C(C)C)[C@@H](C)O[C@H]1O[C@H](CO)[C@@H](O)[C@H](O)[C@@H]1O[C@@H]1O[C@H](CO)[C@@H](O[C@@H]2O[C@H](CO)[C@H](O)[C@H](O)[C@H]2O)[C@H](O)[C@H]1NC(C)=O)[C@@H](C)CC)[C@@H](C)O)[C@@H](C)O)[C@@H](C)CC ({Hexanoyl(5-oxo)}-TRGAIIQTPTLGPIQPT(X2)[Orn(CH(NH2)2)]V-NH2)
Activity [1]: inactive
Activity [2]: inactive
Activity [3]: Active
Activity [4]: Active
Activity [5]: Active
Activity [6]: Active
Activity [7]: Active
Activity [8]: Active
Activity [9]: inactive
Activity [10]: inactive
Activity [11]: Active
Activity [12]: Active
Activity [13]: Active
Activity [14]: Active

SMILES: CC[C@H](C)[C@H](NC(=O)[C@H](C)NC(=O)CNC(=O)[C@H](CCCNC(=N)N)NC(=O)[C@@H](NC(=O)CCCC(C)=O)[C@@H](C)O)C(=O)N[C@H](C(=O)N[C@@H](CCC(N)=O)C(=O)N[C@H](C(=O)N1CCC[C@H]1C(=O)N[C@H](C(=O)N[C@@H](CC(C)C)C(=O)NCC(=O)N1CCC[C@H]1C(=O)N[C@H](C(=O)N[C@@H](CCC(N)=O)C(=O)N1CCC[C@H]1C(=O)N[C@H](C(=O)N[C@@H](CCCNC(=N)N)C(=O)N[C@H](C(N)=O)C(C)C)[C@@H](C)O)[C@@H](C)CC)[C@@H](C)O)[C@@H](C)O[C@H]1O[C@H](CO)[C@@H](O)[C@H](O)[C@@H]1O[C@@H]1O[C@H](CO)[C@@H](O[C@@H]2O[C@H](CO)[C@H](O)[C@H](O[C@]3(C(=O)O)C[C@H](O)[C@@H](NC(C)=O)[C@H]([C@H](O)[C@H](O)CO)O3)[C@H]2O)[C@H](O)[C@H]1NC(C)=O)[C@@H](C)CC ({Hexanoyl(5-oxo)}-TRGAIIQT(X1)PTLGPIQPTRV-NH2)
Activity [1]: inactive
Activity [2]: inactive
Activity [3]: Active
Activity [4]: Active
Activity [5]: Active
Activity [6]: Active
Activity [7]: Active
Activity [8]: Active
Activity [9]: inactive
Activity [10]: inactive
Activity [11]: Active
Activity [12]: Active
Activity [13]: Active
Activity [14]: Active
